Reference: patent US11306122B2, “Compositions and methods of inhibiting the binding of plasma IgG autoantibodies to serotonin 2A receptor” (United States Government As Represented By The Department …, priority 2019, dated 2022)
“Also recorded” adds a separate entry of the source. Ends that are not written are not given here.

Legend:
[1] = system: N2A mouse neuroblastoma cells; experiment: N2A cell survival (MTT) promoted by schizophrenia/psychosis plasma autoantibodies; format: cell-based; conditions: M100907 500 nM; LY379268 5 μM; pertussis toxin 100 ng/mL; LY294002 20 μM; 24 hours
Experimental: (§1) Methods: Plasma from five older adults with chronic schizophrenia and eight age-matched patients having another neuropsychiatric, immune or metabolic disorder was subjected to Protein-A affinity chromatography to obtain IgG autoantibodies. Mean neurite retraction (5 minutes) or cell survival (24 hours) was determined in mouse N2A neuroblastoma cells incubated with autoantibodies in the presence or absence of specific antagonists of the Gq/11/PLC/IP3R signaling pathway, Gi-coupled, beta-arrestin2-directed pathways, or LY379268.
N2A cell survival. MTT assay was performed 24 hours after incubation with test substances (Zimering M B, J Endocrinol Diabetes. 2018; 5(2): 10).
Serotonin 2A receptor activation leads to f3-arrestin-2-mediated desensitization and receptor internalization. However, β-arrestin-2 can also couple with diverse signaling pathways leading to enhanced cell proliferation and/or survival promotion.

[2] = system: N2A cells; experiment: N2A cell loss (MTT) induced by TBI patient autoantibodies; format: cell-based, mouse
Experimental: Cell survival was determined with MTT assay.
Mouse neuroblastoma cell loss. N2A cell loss was quantified using an MTT (3-(4,5-dimethylthiazol-2-yl)-2,5-diphenyltetrazolium bromide) tetrazolium reduction assay after overnight incubation with autoantibodies from TBI patients (Zimering M B, Endocrinol Diabetes Metab J. 2019 August; 3(4) pii: 118. Epub 2019 Aug. 14).

[3] = system: N2A mouse neuroblastoma cells; experiment: Acute N2A neurite retraction induced by schizophrenia plasma autoantibodies; format: cell-based; conditions: for % AutoAB-induced neurite retraction: 20 nM Pt 1 schizophrenia AutoAB
Experimental: as §1
Acute neurite retraction assay. Percent of basal neurite length in N2A cells expressing one or more proximally-located dendrite-like process was determined after interval exposure to test substances (Zimering M B, J Endocrinol Diabetes. 2018; 5(2): 10).
A twenty nanomolar concentration of protein-A eluate fraction of plasma from Pt 1 with schizophrenia was incubated with N2A cells in the presence or absence of the indicated concentration of each Gq/11, GPCR antagonist. Results are the mean+/−SD of two experiments.
A forty nanomolar concentration of plasma autoantibodies (AutoAB) from Pt 1 or Pt, schizophrenia, was incubated in the presence or absence of the indicated concentration of RhoA/Rho kinase (ROCK) inhibitor, or individual antagonists of the Gq11/PLC/IP3R signaling pathway. […]

[4] = system: N2a neuroblastoma cells; experiment: N2a cell survival with ZDF rat plasma protein G eluate; format: cell-based, mouse; conditions: 1 μM antagonist; 1 μg/mL (10 nM) eluate; 24 hours
Experimental: Plasma was applied to a Protein G affinity chromatography column (which binds most subclasses or rat IgG autoantibodies), washed extensively and eluted in low pH (2.7) buffer. The resulting eluate was incubated with N2a neuroblastoma cells at 37 degrees C. for 24 hours.

[5] = system: mouse N2A neuroblastoma cells; experiment: Acute N2A neurite retraction induced by TBI patient 5-HT2A receptor autoantibodies; format: cell-based; conditions: for effect on TBI autoantibody-induced acute neurite retraction: M100907 250-500 nM, Y27632 10 μM, other concentrations as in Table 17; for % of autoantibody Neurite Retraction from TBI patients: 60 nM IgG of representative TBI patient
Experimental: Acute neurite retraction. Mouse N2A neuroblastoma cells were maintained in Dulbecco's minimal essential medium with 10% fetal calf serum. […] Neurite retraction represents average neurite length-shortening after five minutes exposure to TBI (5-HT2A receptor) autoantibodies (60-100 nM) in the presence or absence of various G-protein coupled receptor (GPCR) or signaling pathway antagonists.
A 60 nanomolar concentration of the IgG autoantibodies (e.g., 5-HT2A receptor autoantibodies) from a representative TBI patient was incubated with N2A cells in the presence or absence of the indicated concentration of the selective GPCR antagonist.
A 60 nanomolar concentration of 5-HT2A receptor autoantibodies from TBI patients was incubated with N2A cells in the presence or absence of the indicated concentration of Gq11/PLC-gamma/IP3R antagonist or RhoA/Rho kinase pathway inhibitor.
Neurovascular 5-hydroxytryptamine (serotonin) 2A receptor (5-HT2AR) autoantibodies were previously reported to function as long-acting agonists in diabetic angiopathy and subsets of major depression, Parkinson's disease or dementia. The 5-HT2A receptor is highly expressed in specific brain regions underlying cognition, perception and mood regulation. Long-lasting 5-HT2A receptor activation by circulating autoantibodies might contribute to pathophysiology via central and peripheral mechanisms. Since the risk or incidence of Parkinson's disease, depression and dementia increase following traumatic brain injury (TBI), circulating neurotoxic autoantibodies (e.g., 5HT2AR) were tested, characterized and compared with autoantibodies from TBI patients vs. diabetic subsets with or without neurodegenerative disorders. Plasma IgG autoantibodies (e.g., 5-HT2AR autoantibodies) were obtained by protein-A affinity chromatography in ten male TBI patients mean age 64 years old.

[6] = Observation of side effects and sedation in ZDF rats; format: in vivo, Zucker diabetic fatty (ZDF) rat
Experimental: Normally these rats will feed nearly continuously when given the opportunity. This sedating effect was reproducible following a second IP injection of 1 mg of the SEQ ID NO: 2 in each of the 3 ZDR rats. […] Serotonin plays a major role in wakefulness and arousal in the nervous system. It is possible that the administration of SEQ ID NO: 2 blocks the action of the neurotransmitter serotonin at multiple sites in the periphery and in the central nervous system, inducing sleep via antagonism of serotonin's role in wakefulness/arousal, independent of the pronounced blood pressure-lowering effect.

[7] = Blood glucose in ZDF rats; format: in vivo, Zucker diabetic fatty (ZDF) rat

Compound	effect on autoantibody-induced N2A pro-survival/proliferation (words) [1]	effect alone on N2A cell survival ([2]; 250 nM-500 nM, without autoantibodies)	effect on accelerated N2A cell death/loss by TBI autoantibodies ([2]; M100907 250 nM (eight of eight patients), prazosin 850 nM (n=5), one-fiftieth dilution, 24 hours)	effect on LY379268-potentiated SCZ autoantibody-induced neurite retraction ([3]; M100907 500 nM)	effect on schizophrenia autoantibody-induced neurite retraction ([3]; M100907 two-hundred nanomolar, Y27632 ten micromolar, Y254890 one micromolar)	% AutoAB-induced neurite retraction ([3]; antagonist 200 nM) [%]	effect on accelerated neuroblastoma cell death induced by ZDF rat protein G eluate [4]	prevention of mean neurite retraction in TBI patient 5-HT2AR autoantibodies ([5]; M100907 200-670 nM, n=10 TBI patients, retraction alone 52±10%)	effect on TBI autoantibody-induced acute neurite retraction [5]	% of autoantibody Neurite Retraction from TBI patients ([5]; antagonist 250 nM) [%]	% AutoAB-induced neurite retraction ([3]; antagonist 500 nM) [%]	% of autoantibody Neurite Retraction from TBI patients ([5]; antagonist 400 nM) [%]	vomiting or other side effects during and for 15 days after administration ([6]; ZDF rats, alternate daily 2 mg/kg IP)	side effects eighteen days after injection ([6]; three ZDF rats, approximately 1 mg single intraperitoneal injection)	effect of repeated peptide injections on blood glucose concentration [7]
COc1cccc([C@H](O)C2CCN(CCc3ccc(F)cc3)CC2)c1OC [Peptide M100907]	significantly blocked	no significant effect	substantially prevented; also recorded: nearly completely prevented	significantly prevented	completely prevented	0 ± 0	significantly reduced; also recorded: significant protection	89-91%	substantially prevented; also recorded: completely or nearly completed prevented	0	–	–	–	–	–
O=C(CCCN1CCC2(CC1)C(=O)NCN2c1ccccc1)c1ccc(F)cc1 [Spiperone]	–	–	–	–	–	–	significantly reduced; also recorded: significant protection	–	substantially blocked	–	17 ± 6	20	–	–	–
SCLLADDN [Peptide 2]	–	–	–	–	–	–	–	–	–	–	–	–	did not experience vomiting or any other side effects	no untoward side effects were observed	no evidence that the peptide injections caused a significant increase in blood glucose concentration
